26 molecules from US9868705B2, “Tetra-aryl cyclobutane inhibitors of androgen receptor action for the treatment of hormone refractory cancer” (The Board of Trustees of the University of Illinois, priority 2013, dated 2018) can be followed below.

By IC50 is commonly meant the midpoint of a concentration-inhibition curve.

Structures are written as SMILES. Where a chain is given by its changes, count along the chain named.

One experiment concerns androgen receptor. Briefly: Whole-cell competition binding assay using 3H-R1881. Particulars: whole cells; mutant AR and WT-AR.
The target of another experiment is T1, AR (Homo sapiens, UniProt P10275).
T1 sequence (P10275 1-920): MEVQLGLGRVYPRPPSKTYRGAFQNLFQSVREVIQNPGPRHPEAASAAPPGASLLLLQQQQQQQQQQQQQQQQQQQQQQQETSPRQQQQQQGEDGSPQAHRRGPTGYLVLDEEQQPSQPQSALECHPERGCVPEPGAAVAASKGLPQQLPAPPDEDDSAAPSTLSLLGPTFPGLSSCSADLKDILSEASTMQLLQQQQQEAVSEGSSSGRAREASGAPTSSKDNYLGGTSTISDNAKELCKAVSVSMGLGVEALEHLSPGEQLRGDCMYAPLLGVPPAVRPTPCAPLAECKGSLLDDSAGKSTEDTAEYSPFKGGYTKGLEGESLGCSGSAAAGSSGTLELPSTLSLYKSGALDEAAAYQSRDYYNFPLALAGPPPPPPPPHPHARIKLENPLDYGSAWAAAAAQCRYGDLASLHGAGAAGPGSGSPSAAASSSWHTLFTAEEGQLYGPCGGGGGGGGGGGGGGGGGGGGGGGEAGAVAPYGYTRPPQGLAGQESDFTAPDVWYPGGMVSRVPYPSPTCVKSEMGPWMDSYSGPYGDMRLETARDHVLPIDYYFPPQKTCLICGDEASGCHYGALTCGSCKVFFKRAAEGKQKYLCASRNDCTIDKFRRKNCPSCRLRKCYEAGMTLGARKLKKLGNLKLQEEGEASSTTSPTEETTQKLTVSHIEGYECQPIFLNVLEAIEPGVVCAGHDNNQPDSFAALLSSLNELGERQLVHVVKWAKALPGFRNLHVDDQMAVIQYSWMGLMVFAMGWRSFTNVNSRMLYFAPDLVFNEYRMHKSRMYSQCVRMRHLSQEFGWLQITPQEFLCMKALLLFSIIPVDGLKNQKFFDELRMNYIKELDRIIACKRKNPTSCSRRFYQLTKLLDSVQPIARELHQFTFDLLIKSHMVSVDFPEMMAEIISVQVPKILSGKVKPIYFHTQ
Briefly: AR relative binding affinity (RBA).

For the next experiment, the target named is T2, wild type AR (Homo sapiens, UniProt P10275).
T2 construct: expressed in transfected cells; host or cells: CV-1
T2 sequence (P10275 1-920): T1 sequence (P10275 1-920)
Briefly: MMTV-luciferase transcription assay in CV-1 cells, wild type AR. Type of experiment: cell-based. Particulars: wild type AR; for MMTV transcription assay in CV-1 cells WT (IC50 / inhibition): values given as powers of ten without unit, or in words. From the text:
(§1) These compounds were screened using an AR-responsive MMTV transcription assay in CV-1 cells, utilizing both wild type and T877A (LNCaP) AR. […]

The next experiment has as its target T3, T877A (LNCaP) AR (Homo sapiens, UniProt P10275, T878A).
T3 construct: expressed in transfected cells; host or cells: CV-1
T3 sequence (P10275 1-920 T878A): T1 sequence (P10275 1-920) with T878A
Briefly: MMTV-luciferase transcription assay in CV-1 cells, T877A AR. The class given is cell-based. To be noted: for MMTV transcription assay in CV-1 cells T877A (IC50 / inhibition) / IC50: T877A AR; for MMTV transcription assay in CV-1 cells T877A (IC50 / inhibition): values given as powers of ten without unit, or in words; for AR antagonism, potency in words (structure-activity discussion): MMTV transcription assay in CV-1 cells, compared with 1; for IC50: values given in μM, read-out: MMTV transcription assay in CV-1 cells T877A (IC50).
Description: as §1

`CCCNc1cc([C@H]2[C@H](c3ccccc3)[C@@H](c3cc(NCCC)nc(NCCC)n3)[C@H]2c2ccccc2)nc(NCCC)n1` [CB-1]: in the experiment with androgen receptor, the “competition with 3H-R1881 for binding to AR” value is “compete with 3H-R1881”.

As to `CC(C)CNc1cc([C@H]2[C@@H](c3ccccc3)[C@H](c3cc(NCC(C)C)nc(NCC(C)C)n3)[C@@H]2c2ccccc2)nc(NCc2cccc3ccccc23)n1` [CB-6], in the experiment with androgen receptor, the “competition with 3H-R1881 for binding to AR” value was “compete with 3H-R1881”.

`COc1cc([C@H]2[C@H](c3ccccc3)[C@@H](c3cc(OC)nc(OC)n3)[C@H]2c2ccccc2)nc(OC)n1` [CB-31]: the “AR RBA” value on AR came to 0.046%.

`CSc1cc([C@H]2[C@H](c3ccccc3)[C@H](c3cc(SC)nc(SC)n3)[C@H]2c2ccccc2)nc(SC)n1` [CB-34]: at AR, the “AR RBA” value stood at 0.002%.

In the case of `CSc1cc([C@H]2[C@H](c3ccccc3)[C@@H](c3cc(SC)nc(SC)n3)[C@H]2c2ccccc2)nc(SC)n1` [CB-35], on AR, the “AR RBA” value is listed as 0.027%.

As to `COc1cc([C@H]2[C@@H](c3ccccc3)[C@H](c3cc(=O)[nH]c(=O)[nH]3)[C@@H]2c2ccccc2)nc(OC)n1` [CB-45], the “AR RBA” value on AR was 0.087%.

For the molecule `COc1cc([C@H]2[C@@H](c3ccccc3)[C@@H](c3cc(=O)[nH]c(=O)[nH]3)[C@@H]2c2ccccc2)nc(OC)n1` [CB-46], the “AR RBA” value on AR was determined as 0.065%.

For `O=c1cc([C@H]2[C@H](c3ccccc3)[C@@H](c3cc(=O)[nH]c(=O)[nH]3)[C@H]2c2ccccc2)[nH]c(=O)[nH]1` [CB-48], the “AR RBA” value at AR is given as 0.023%.

With `CCc1cc([C@H]2[C@H](c3ccccc3)[C@H](c3cc(CC)nc(CC)n3)[C@H]2c2ccccc2)nc(CC)n1` [CB-50], on AR, the “AR RBA” value is 0.029%.

On to `COc1nccc([C@H]2[C@H](c3ccccc3)[C@@H](c3ccnc(OC)n3)[C@H]2c2ccccc2)n1` [DMP-6], for which the “MMTV transcription assay in CV-1 cells WT (IC50 / inhibition)” value on wild type AR is listed as “No inhibition No inhibition”. In addition, the “MMTV transcription assay in CV-1 cells T877A (IC50 / inhibition)” value on T877A (LNCaP) AR is recorded as “No inhibition No inhibition”.

For the molecule `COc1cc([C@H]2[C@H](c3ccc(Br)cc3)[C@@H](c3cc(OC)nc(OC)n3)[C@H]2c2ccc(Br)cc2)nc(OC)n1` [DMP-10], the “MMTV transcription assay in CV-1 cells WT (IC50 / inhibition)” value on wild type AR is reported as “No inhibition”. In addition, at T877A (LNCaP) AR, the “AR antagonism, potency in words (structure-activity discussion)” value (shortened to “AR antagonism, potency in words”) was “inactive” and the “MMTV transcription assay in CV-1 cells T877A (IC50 / inhibition)” value was “No inhibition”.

Turning to `c1ccc([C@H]2[C@H](c3ccccn3)[C@H](c3ccccc3)[C@H]2c2ccccn2)cc1` [DMP-13], on wild type AR, the “MMTV transcription assay in CV-1 cells WT (IC50 / inhibition)” value is given as “No inhibition No inhibition”.

As to `Clc1cc([C@H]2[C@H](c3cccs3)[C@H](c3cc(Cl)nc(Cl)n3)[C@H]2c2cccs2)nc(Cl)n1` [DMP-28], the “MMTV transcription assay in CV-1 cells WT (IC50 / inhibition)” value on wild type AR was “Incomplete inhibition at 10^−5 Incomplete inhibition at 10^−5”. For the same molecule, at T877A (LNCaP) AR, the “AR antagonism, potency in words” value is on record as “retained parent compound potency” and the IC50 worked out at 2.6 µM.

With `Clc1cc([C@@H]2[C@H](c3cc(Cl)nc(Cl)n3)[C@@H](c3cccs3)[C@H]2c2cccs2)nc(Cl)n1` [DMP-29], the “MMTV transcription assay in CV-1 cells WT (IC50 / inhibition)” value at wild type AR is reported as “Incomplete inhibition at 10^−5 Incomplete inhibition at 10^−5”. Besides, on T877A (LNCaP) AR, the “AR antagonism, potency in words” value is reported as “retained parent compound potency” and the “MMTV transcription assay in CV-1 cells T877A (IC50 / inhibition)” value is given as “Incomplete inhibition at 10^−5”.

`COc1nccc([C@H]2[C@H](c3ccccc3)[C@H](c3ccnc(OC)n3)[C@H]2c2ccccc2)n1` [DPM-5]: on wild type AR, the “MMTV transcription assay in CV-1 cells WT (IC50 / inhibition)” value was “No inhibition No inhibition”. Besides, at T877A (LNCaP) AR, the “MMTV transcription assay in CV-1 cells T877A (IC50 / inhibition)” value is on record as “No inhibition No inhibition”.

Regarding `COc1cc([C@H]2[C@H](c3ccsc3)[C@H](c3cc(OC)nc(OC)n3)[C@H]2c2ccsc2)nc(OC)n1` [DPM-8], on wild type AR, the “MMTV transcription assay in CV-1 cells WT (IC50 / inhibition)” value is on record as “Incomplete inhibition at 10^−5 Incomplete inhibition at 10^−5”. Besides, the “AR antagonism, potency in words” value on T877A (LNCaP) AR is reported as “retained parent compound potency”.

In the case of `c1ccc([C@H]2[C@H](c3cnccn3)[C@H](c3ccccc3)[C@@H]2c2cnccn2)cc1` [DPM-11/20], the “MMTV transcription assay in CV-1 cells WT (IC50 / inhibition)” value at wild type AR is “No inhibition No inhibition”. Also, the “MMTV transcription assay in CV-1 cells T877A (IC50 / inhibition)” value at T877A (LNCaP) AR is reported as “Mild inhibition at~10^−5”.

Regarding `c1ccc([C@@H]2[C@H](c3ccccc3)[C@@H](c3cnccn3)[C@H]2c2cnccn2)cc1` [DPM-12], the “MMTV transcription assay in CV-1 cells WT (IC50 / inhibition)” value at wild type AR is listed as “No inhibition No inhibition”. At T877A (LNCaP) AR, the “MMTV transcription assay in CV-1 cells T877A (IC50 / inhibition)” value is “No inhibition”.

For `c1ccc([C@@H]2[C@H](c3ccccc3)[C@@H](c3ccccn3)[C@H]2c2ccccn2)cc1` [DPM-14], the “MMTV transcription assay in CV-1 cells WT (IC50 / inhibition)” value at wild type AR is “No inhibition No inhibition”. Further, the “MMTV transcription assay in CV-1 cells T877A (IC50 / inhibition)” value at T877A (LNCaP) AR is reported as “No inhibition”.

`COc1cncc([C@@H]2[C@@H](c3ccccc3)[C@@H](c3ccccc3)[C@@H]2c2cncc(OC)n2)n1` [DPM-15]: the “MMTV transcription assay in CV-1 cells WT (IC50 / inhibition)” value at wild type AR was “No inhibition”. The “AR antagonism, potency in words” value at T877A (LNCaP) AR is listed as “decreased activity”.

In the case of `COc1cncc([C@@H]2[C@@H](c3ccccc3)[C@@H](c3ccccc3)[C@@H]2c2cncc(OC)n2)n1` [DPM-16], the “MMTV transcription assay in CV-1 cells WT (IC50 / inhibition)” value at wild type AR is recorded as “No inhibition”. In addition, at T877A (LNCaP) AR, the “AR antagonism, potency in words” value is reported as “decreased activity” and the “MMTV transcription assay in CV-1 cells T877A (IC50 / inhibition)” value was “Slight inhibition at 10^−5”.

Take `COc1cncc([C@H]2[C@H](c3ccccc3)[C@@H](c3cncc(OC)n3)[C@H]2c2ccccc2)n1` [DPM-17]: at T877A (LNCaP) AR, the “AR antagonism, potency in words” value is “decreased activity”.

Consider `COc1cncc([C@H]2[C@H](c3ccccc3)[C@H](c3cncc(OC)n3)[C@H]2c2ccccc2)n1` [DPM-18], for which the “MMTV transcription assay in CV-1 cells WT (IC50 / inhibition)” value on wild type AR is reported as “No inhibition”. Further, the “AR antagonism, potency in words” value on T877A (LNCaP) AR was “decreased activity”.

In the case of `Clc1cc([C@H]2[C@H](c3ccccc3)[C@H](c3cc(Cl)ncn3)[C@H]2c2ccccc2)ncn1` [DPM-26], the “MMTV transcription assay in CV-1 cells WT (IC50 / inhibition)” value at wild type AR is given as “Incomplete inhibition at 10^−5”. Further, at T877A (LNCaP) AR, the “AR antagonism, potency in words” value was “decreased potency” and the IC50 worked out at 9 µM.

As for `Clc1cc([C@H]2[C@H](c3ccc(-c4ccccc4)cc3)[C@H](c3cc(Cl)nc(Cl)n3)[C@H]2c2ccc(-c3ccccc3)cc2)nc(Cl)n1` [DPM-27], the “MMTV transcription assay in CV-1 cells WT (IC50 / inhibition)” value on wild type AR is on record as “No inhibition”. Moreover, at T877A (LNCaP) AR, the “AR antagonism, potency in words” value was “inactive” and the “MMTV transcription assay in CV-1 cells T877A (IC50 / inhibition)” value is “No inhibition”.

Consider `Cc1cc([C@H]2[C@H](c3ccccc3)[C@H](c3cc(C)nc(Cl)n3)[C@H]2c2ccccc2)nc(Cl)n1` [DPM-30], for which the IC50 at wild type AR (values given in μM, read-out: MMTV transcription assay in CV-1 cells WT (IC50)) stood at 17 µM. Also, at T877A (LNCaP) AR, the “AR antagonism, potency in words” value was “comparable potency to 1” and the IC50 came out at 2.89 µM.
